Measurements reported in patent publication US11781114B2, “Materials and methods for expansion of stem cells” (FLORIDA STATE UNIVERSITY RESEARCH FOUNDATION, INC., priority 2014, dated 2023).
Entries after “also recorded” stand apart in the source; their conditions may differ.

What was measured:
Assay type in all cases: cell-based, human
hMSC aggregates [1] = test: hMSC aggregate formation and compaction (aggregate size) with cytoskeleton modulators; set-up: aggregate compaction vs non-treated control: dose or concentration left out as unconfirmed; details: for aggregate compaction / aggregate diameter: 0.2 to 0.6 μM; for aggregate compaction vs non-treated control: nocodazole 3D treatment
Protocol: hMSCs from monolayer culture were trypsinized and 100 μL media containing 5,000 cells were added in each well of an ultra-low attachment (ULA) 96-well plate with round-bottom (Corning, Corning, N.Y.) for overnight. To analyze size-dependent ATP contents, aggregates containing 500, 2,000, and 5,000 cells were used following the same method. Suspended single hMSCs spontaneously self-assembled into one aggregate per well. Aggregates were cultured individually up to 7 days with media change every two days. The aggregates were tracked individually and the morphologies were imaged with an Olympus IX70 microscope (Center Valley, Pa.).
Cytochalasin D (cytoD), lysophosphatidic acid (LPA), Y-27632, nocodazole were added into culture media to final concentrations of 0.2 to 0.6 μM, 2.0 to 10.0 μM, 2.0 to 10 μM, and […], respectively. To test the temporal effects of actin modulators on aggregate formation, cells were treated with media containing cytoD and LPA during monolayer culture prior to aggregate formation (termed “2D Pretreatment”) or 12 hours after aggregate formation in ULA plates (termed “3D Treatment). Only 3D treatments were performed for Y-27632 and nocodazole.
Morphology of the aggregates was visualized using an Olympus IX70 microscope and the images recorded. The images were processed and the areas of the individual aggregates were calculated using ImageJ software (rsb.info.nih.gov/ij/). The DNA content of the individual aggregates was used to calculate cell number. Briefly, individually collected hMSC aggregates were washed with phosphate buffered saline (PBS) and digested with proteinase K overnight. PicoGreen (Life Technologies) was added to triplicate samples and a DNA standard in a 96-well plate. The cell numbers in aggregates were determined by the PicoGreen fluorescence intensity using 9.3 pg/cell as determined in our prior study (Kim and Ma 2012). DNA assay detects double-stranded DNA that may also be present in dead cells with intact DNA. However, this population in the aggregates is low, and the yield of live cells measured by DNA assay is close to cell count using other methods such as flow cytometry (Ylostalo et al. 2014). The packing densities were calculated using cell number divided by aggregate volume assuming a spherical shape. At least six aggregates were used in each condition.

hMSC aggregates [2] = test: Cell survival and packing density of aggregates by DNA content (PicoGreen)
Protocol: The DNA content of the individual aggregates was used to calculate cell number. Briefly, individually collected hMSC aggregates were washed with phosphate buffered saline (PBS) and digested with proteinase K overnight. PicoGreen (Life Technologies) was added to triplicate samples and a DNA standard in a 96-well plate. The cell numbers in aggregates were determined by the PicoGreen fluorescence intensity using 9.3 pg/cell as determined in our prior study (Kim and Ma 2012). […] The packing densities were calculated using cell number divided by aggregate volume assuming a spherical shape. At least six aggregates were used in each condition.

Caspase 3/7 = test: Caspase-Glo 3/7 assay; details: for caspase 3/7 activity in 3D aggregates: normalized to cell number
Protocol: (§1) Caspase 3/7 activity was measured by Caspase-Glo 3/7 assay systems (Promega, Madison, Wis.). Caspase-Glo 3/7 working buffer was added to triplicate samples containing aggregates and culture media in 96-well [sequence] 200 white immunology plate (Greiner Bio-One, Monroe, N.C.). The results were read by a luminescence plate reader and normalized to cell number (Biotek Instruments, Winooski, Vt.). Secreted PGE-2 and IL-6 in conditioned media were quantified using a PGE-2 Parameter Assay Kit and IL-6 DuoSet ELISA kits, respectively (R&D Systems, Minneapolis, Minn.). Total secreted PGE-2 and IL-6 were determined by subtracting cytokine concentrations in culture media controls and normalized to the cell number in the aggregates.

hMSC aggregates [3] = test: Aggregate spreading on glass coverslip and fusion on ULA surface; details: for aggregate spreading on glass coverslip / fusion of adjacent aggregates on ULA surface: aggregates treated for 5 days
Protocol: To test re-adhesion and fusion, the aggregates from various treatment conditions were plated on glass coverslip for re-adhesion or placed adjacently on ULA surface for fusion. Images were captured with Olympus IX70 microscope and analyzed by ImageJ software.

IL-6 = test: Secreted IL-6 in conditioned media (ELISA); details: treated 3D aggregates
Protocol: as §1

PGE-2 = test: Secreted PGE-2 in conditioned media (Parameter Assay Kit); details: treated 3D aggregates
Protocol: as §1

hMSC aggregates [4] = test: Morphology by SEM, H&E histology and F-actin staining; details: for cell morphology in the aggregates (SEM and histology) / outer boundary of aggregates (H&E, F-actin staining of sections): treated aggregates vs control aggregates; for hMSC morphology on 2D planar surface (F-actin staining): nocodazole treatment
Protocol: For SEM, the aggregate samples were fixed in 4% paraformaldehyde (PFA), dehydrated through a graded series of ethanol, incubated in hexamethyldisilazane, and vacuum dried overnight. The samples were mounted onto carbon-coated chucks, sputter-coated with gold in an argon atmosphere for 4 minutes at 2 kV, and analyzed on a SEM (JSM-7401F) (JEOL, Tokyo, Japan). For immunostaining, the cells were fixed with 4% PFA, permeabilized with 0.5% Triton X-100, blocked with 1.0% BSA, incubated with primary antibody, and imaged with an Olympus IX70 (Center Valley, Pa.) microscope. For histology, hematoxylin-eosin (H&E) staining was performed following the prior reported method (Kim and Ma 2012). hMSC aggregates were fixed in 10% formalin, dehydrated and embedded in paraffin wax; 10 μm sections were cut and stained with Lerner-2 Hematoxylin (Lerner Laboratories, Pittsburgh, Pa.) and Eosin-Y w/ Phloxine (Richard-Allan Scientific, Kalamazoo, Mich.) by standard procedures (Kim and Ma 2012). Images were captured with Olympus IX70 microscope with MagnaFire SP 2.1B software.

hMSC aggregates [5] = test: hMSC aggregate formation and compaction (aggregate size) with cytoskeleton modulators; details: cytoD 2D pretreatment, concentration above 0.6 μM (high concentration)
[6] = 0.6 μM cytoD 3D treatment, day 5
[7] = Q-VD-OPh, after three days of culture

C[C@@H](N)[C@H]1CC[C@H](C(=O)Nc2ccncc2)CC1 [Y-27632]
increase in aggregate diameter compared to control aggregates (hMSC aggregates [1]; 10 μM Y-27632, day 5): 6.7%
aggregate compaction (hMSC aggregates [1]; Y-27632 3D treatment, 10 μM): prevented aggregate compaction; also recorded: reduced aggregate compaction
cell viability / cell survival vs control aggregates (hMSC aggregates [2]; 10 μM Y-27632, 5 days of treatment): lower than non-treated control; also recorded: comparable or even less
decrease in cell packing density compared to control aggregates (hMSC aggregates [2]; 10 μM Y-27632, day 5): 38.7%
cell packing density vs control (in words) (hMSC aggregates [2]; Y-27632, day 5): significantly lower
caspase 3/7 activity in 2D adherent culture (Caspase 3/7): increased caspase 3/7 activity
caspase 3/7 activity in 3D aggregates (Caspase 3/7): highest caspase 3/7 activity; also recorded: increased caspase 3/7 activity
aggregate spreading on glass coverslip (hMSC aggregates [3]): readily re-adhered and spread on glass coverslips
fusion of adjacent aggregates on ULA surface (hMSC aggregates [3]): fused when adjacently placed on ULA surface; also recorded: reduced tendency to fuse
IL-6 secretion of 3D aggregates (IL-6): limited effects
PGE-2 secretion of 3D aggregates (PGE-2): limited effects
cell morphology in the aggregates (SEM and histology) (hMSC aggregates [4]): large interstitial space and exhibit round morphology; also recorded: loosely packed and exhibited spherical morphology with abundant interstitial space
outer boundary of aggregates (H&E, F-actin staining of sections) (hMSC aggregates [4]): disintegrated outer boundaries; also recorded: discontinuous outer boundary; also recorded: loosely packed with no spreading at the boundary

lysophosphatidic acid [LPA]
aggregate compaction vs control (hMSC aggregates [1]; LPA up to 10 μM, 2D pretreatment and 3D treatment): minimal impact on aggregate compaction; also recorded: declined at the same rate as control; also recorded: limited effects
viability / cell survival vs control (hMSC aggregates [2]; LPA up to 10 μM, 5 days 3D treatment): comparable cell survival; also recorded: limited effects
cell packing density vs control (hMSC aggregates [2]; LPA, 5 days 3D treatment): comparable
caspase 3/7 activity in 2D adherent culture (Caspase 3/7): increased caspase 3/7 activity
caspase 3/7 activity in 3D aggregates (Caspase 3/7): increased caspase 3/7 activity
aggregate spreading on glass coverslip (hMSC aggregates [3]): readily re-adhered and spread on glass coverslips; also recorded: spread on glass coverslip
fusion of adjacent aggregates on ULA surface (hMSC aggregates [3]): fused when adjacently placed on ULA surface; also recorded: readily fused

C=C1[C@@H](C)[C@H]2[C@H](Cc3ccccc3)NC(=O)[C@]23[C@H](OC(C)=O)/C=C/[C@@](C)(O)C(=O)[C@@H](C)C/C=C/[C@H]3[C@@H]1O [cytoD, Cytochalasin D]
aggregate compaction (hMSC aggregates [1]; cytoD 2D pretreatment, lower concentrations): prevented aggregate compaction
aggregate compaction (hMSC aggregates [1]; cytoD 2D pretreatment, lower concentrations, listed as CytoD): reduced compaction
aggregate integrity (hMSC aggregates [1]; cytoD 3D treatment, 0.6 μM): remained intact
aggregate compaction / aggregate diameter (hMSC aggregates [1]; cytoD 3D treatment): dose-dependent reduction on compaction
aggregate compaction / aggregate diameter (hMSC aggregates [1]; cytoD 3D treatment, listed as CytoD): reduced compaction; also recorded: Dose-dependent decline of aggregate diameters
cell viability / cell survival vs control aggregates (hMSC aggregates [2]; [6]): significantly reduced cell viability; also recorded: significantly lower cell survival
packing density vs control aggregates (hMSC aggregates [2]; [6]): significantly reduced; also recorded: significantly lower
caspase 3/7 activity in 2D adherent culture (Caspase 3/7): significantly increased caspase 3/7 activity
caspase 3/7 activity in 3D aggregates (Caspase 3/7): comparable apoptotic activity
aggregate spreading on glass coverslip (hMSC aggregates [3]): abolishes; also recorded: did not spread on glass coverslips; also recorded: completely prevented aggregate spreading on glass coverslip
fusion of adjacent aggregates on ULA surface (hMSC aggregates [3]): abolishes; also recorded: nor fused; also recorded: completely prevented
fusion and adhesion properties of hBMSC aggregates (hMSC aggregates [3]; hBMSC aggregates on ULA plates / glass): abrogated their fusion and adhesion properties; also recorded: abrogates these properties
IL-6 secretion of 3D aggregates (IL-6): limited effects
PGE-2 secretion of 3D aggregates (PGE-2): limited effects
cell morphology in the aggregates (SEM and histology) (hMSC aggregates [4]): large interstitial space and exhibit round morphology; also recorded: loosely packed and exhibited spherical morphology with abundant interstitial space
outer boundary of aggregates (H&E, F-actin staining of sections) (hMSC aggregates [4]): loosely packed with no spreading at the boundary
outer boundary of aggregates (H&E, F-actin staining of sections) (hMSC aggregates [4]; listed as CytoD): disintegrated outer boundaries; also recorded: discontinuous outer boundary
outer boundary of aggregates (H&E, F-actin staining of sections) (hMSC aggregates [4]; listed as cytochalasin D): disrupted the mechanically polarized outer layer
hMSC aggregation (aggregate formation) (hMSC aggregates [5]): disrupted hMSC aggregation
hMSC aggregation (aggregate formation) (hMSC aggregates [5]; listed as CytoD): prevented hMSC aggregation

CC(C)[C@H](NC(=O)c1ccc2ccccc2n1)C(=O)N[C@@H](CC(=O)O)C(=O)COc1c(F)cccc1F [Q-VD-OPh]
aggregate compaction vs control (hMSC aggregates [1]; [7]): significantly reduced cell compaction
cell packing density vs control (hMSC aggregates [2]; [7]): increased cell packing density; also recorded: higher packing density
cell viability / survival vs control (hMSC aggregates [2]; [7]): improved cell survival; also recorded: significantly increased cell viability
IL-6 secretion of 3D aggregates (IL-6): attenuated to basal levels
PGE-2 secretion of 3D aggregates (PGE-2): attenuated to basal levels

COC(=O)Nc1nc2cc(C(=O)c3cccs3)ccc2[nH]1 [nocodazole]
aggregate compaction vs non-treated control (hMSC aggregates [1]): comparable contractility with control aggregates; also recorded: comparable or higher compaction
aggregate compaction vs non-treated control (hMSC aggregates [1]; listed as Nocodazole): faster compaction
aggregate spreading on glass coverslip (hMSC aggregates [3]): readily spread on adherent surface; also recorded: readily re-adhered and spread on glass coverslips; also recorded: spread on glass coverslip
fusion of adjacent aggregates on ULA surface (hMSC aggregates [3]): fuse with neighboring aggregates; also recorded: fused when adjacently placed on ULA surface; also recorded: readily fused
hMSC morphology on 2D planar surface (F-actin staining) (hMSC aggregates [4]): drastic changes of cell morphology
hMSC morphology on 2D planar surface (F-actin staining) (hMSC aggregates [4]; listed as Nocodazole): significantly altered hMSC morphology
